Data: ChEMBL document CHEMBL1208765, “Structure-activity relationship of lupane-triterpene glycosides from Acanthopanax koreanum on spleen lymphocyte IL-2 and IFN-gamma” (2010)

Assays:
Format in all cases: functional
[1] = system: Splenocyte; test: Immunomodulatory effect in mouse splenocyte assessed as increase in ConA-induced IFN-gamma release at 5 uM by lymphoproliferation test
[2] = system: Splenocyte; test: Immunomodulatory effect in mouse splenocyte assessed as increase in ConA-induced IFN-gamma release at 25 uM by lymphoproliferation test
[3] = system: Splenocyte; test: Immunomodulatory effect in mouse splenocyte assessed as increase in ConA-induced IFN-gamma release at 100 uM by lymphoproliferation test
[4] = system: Splenocyte; test: Immunomodulatory effect in mouse splenocyte assessed as increase in ConA-induced IL2 release at 5 uM by lymphoproliferation test
[5] = system: Splenocyte; test: Immunomodulatory effect in mouse splenocyte assessed as increase in ConA-induced IL2 release at 25 uM by lymphoproliferation test
[6] = system: Splenocyte; test: Immunomodulatory effect in mouse splenocyte assessed as increase in ConA-induced IL2 release at 100 uM by lymphoproliferation test

| SMILES | Activity [1] [pg/mL] | Activity [2] [pg/mL] | Activity [3] [pg/mL] | Activity [4] [pg/mL] | Activity [5] [pg/mL] | Activity [6] [pg/mL] |
| --- | --- | --- | --- | --- | --- | --- |
| C=C(CO)[C@@H]1CC[C@]2(C(=O)O[C@H]3O[C@@H](CO[C@H]4O[C@@H](CO)[C@H](O[C@H]5O[C@@H](C)[C@H](O)[C@@H](O)[C@H]5O)[C@@H](O)[C@@H]4O)[C@H](O)[C@@H](O)[C@@H]3O)CC[C@]3(C)[C@H](CC[C@@H]4[C@@]5(C)CC[C@@H](O)[C@@](C)(C(=O)O)[C@@H]5CC[C@]43C)[C@@H]12 [ACANKOREOSIDE F] | 3.3 | 4 | 4.2 | 16.09 | 23.47 | 27.57 |
| CC(=O)[C@@H]1CC[C@]2(C(=O)O[C@H]3O[C@@H](CO[C@H]4O[C@@H](CO)[C@H](O[C@H]5O[C@@H](C)[C@H](O)[C@@H](O)[C@H]5O)[C@@H](O)[C@@H]4O)[C@H](O)[C@@H](O)[C@@H]3O)CC[C@]3(C)[C@H](CC[C@@H]4[C@@]5(C)CC[C@@H](O)[C@@](C)(C(=O)O)[C@@H]5CC[C@]43C)[C@@H]12 [ACANKOREOSIDES J] | 2.75 | 3.78 | 4.36 | 15.78 | 16.14 | 28.27 |
| C[C@@H]1O[C@H](O[C@@H]2[C@@H](O)[C@H](O)[C@@H](OC[C@@H]3O[C@H](OC(=O)[C@]45CC[C@@H]([C@](C)(O)CO)[C@@H]4[C@H]4CC[C@@H]6[C@@]7(C)CC[C@@H](O)[C@@](C)(C(=O)O)[C@@H]7CC[C@@]6(C)[C@]4(C)CC5)[C@@H](O)[C@H](O)[C@H]3O)O[C@H]2CO)[C@H](O)[C@H](O)[C@H]1O [ACANKOREOSIDE K] | 2.78 | 3.2 | 3.66 | 16.69 | 20.24 | 21.57 |
| C=C(CO)[C@@H]1CC[C@]2(C(=O)O[C@H]3O[C@@H](CO[C@H]4O[C@@H](CO)[C@H](O[C@H]5O[C@@H](C)[C@H](O)[C@@H](O)[C@H]5O)[C@@H](O)[C@@H]4O)[C@H](O)[C@@H](O)[C@@H]3O)CC[C@]3(C)[C@H](C[C@@H](O)[C@@H]4[C@@]5(C)CC[C@@H](O[C@@H]6O[C@H](CO)[C@@H](O)[C@H](O)[C@H]6O)C(C)(C)[C@@H]5CC[C@]43C)[C@@H]12 [ACANKOREOSIDE N] | 1.5 | 1.55 | 1.92 | 17.11 | 13.66 | 19.06 |
| C=C(C)[C@@H]1CC[C@]2(C(=O)O[C@@H]3O[C@H](CO[C@@H]4O[C@H](CO)[C@@H](O[C@H]5O[C@@H](C)[C@H](O)[C@@H](O)[C@H]5O)[C@H](O)[C@H]4O)[C@@H](O)[C@H](O)[C@H]3O)CC[C@]3(C)[C@H](C[C@@H](O)[C@@H]4[C@@]5(C)CC[C@@H](O)[C@@](C)(C=O)[C@@H]5CC[C@]43C)[C@@H]12 [ACANKOREOSIDE D] | 3.69 | 4.62 | 5.29 | 19.26 | 25.32 | 41.34 |
| C=C(CO)[C@@H]1CC[C@]2(C(=O)O[C@H]3O[C@@H](CO[C@H]4O[C@@H](CO)[C@H](O[C@H]5O[C@@H](C)[C@H](O)[C@@H](O)[C@H]5O)[C@@H](O)[C@@H]4O)[C@H](O)[C@@H](O)[C@@H]3O)CC[C@]3(C)[C@H](C[C@@H](O)[C@@H]4[C@@]5(C)CC[C@@H](O)[C@@](C)(C(=O)O)[C@@H]5CC[C@]43C)[C@@H]12 [ACANKOREOSIDE M] | 1.57 | 2.45 | 2.48 | 15.27 | 16.92 | 17.26 |
| C=C(CO)[C@@H]1CC[C@]2(C(=O)O[C@H]3O[C@@H](CO[C@H]4O[C@@H](CO)[C@H](O[C@H]5O[C@@H](C)[C@H](O)[C@@H](O)[C@H]5O)[C@@H](O)[C@@H]4O)[C@H](O)[C@@H](O)[C@@H]3O)CC[C@]3(C)[C@H](C[C@@H](O)[C@@H]4[C@@]5(C)CC[C@@H](O)[C@@](C)(C=O)[C@@H]5CC[C@]43C)[C@@H]12 [ACANKOREOSIDE I] | 1.25 | 4.18 | 2.59 | 10.07 | 12.91 | 14.76 |
| C=C(C)[C@@H]1CC[C@]2(C(=O)O[C@@H]3O[C@H](CO[C@@H]4O[C@H](CO)[C@@H](O[C@@H]5O[C@@H](C)[C@H](O)[C@@H](O)[C@H]5O)[C@H](O)[C@H]4O)[C@@H](O)[C@H](O)[C@H]3O)CC[C@]3(C)[C@H](CC[C@@H]4[C@@]5(C)CC[C@@H](O)[C@@](C)(C(=O)O)[C@@H]5CC[C@]43C)[C@@H]12 [ACANKOREOSIDE A] | 2.89 | 4.62 | 4.57 | 17.04 | 24.87 | 29.78 |
| COC(OC)[C@@H](C)[C@@H]1CC[C@]2(C(=O)O[C@H]3O[C@@H](CO[C@H]4O[C@@H](CO)[C@H](O[C@H]5O[C@@H](C)[C@H](O)[C@@H](O)[C@H]5O)[C@@H](O)[C@@H]4O)[C@H](O)[C@@H](O)[C@@H]3O)CC[C@]3(C)[C@H](CC[C@@H]4[C@@]5(C)CC[C@@H](O)[C@@](C)(C(=O)O)[C@@H]5CC[C@]43C)[C@@H]12 [ACANKOREOSIDE L] | 3.53 | 3.71 | 6.07 | 20.68 | 45.06 | 74.47 |
| C=C(C)[C@@H]1CC[C@]2(C(=O)O[C@@H]3O[C@H](CO[C@@H]4O[C@H](CO)[C@@H](O[C@H]5O[C@@H](C)[C@H](O)[C@@H](O)[C@H]5O)[C@H](O)[C@H]4O)[C@@H](O)[C@H](O)[C@H]3O)CC[C@]3(C)[C@H](C[C@@H](O)[C@@H]4[C@@]5(C)CC[C@@H](O)C(C)(C)[C@@H]5CC[C@]43C)C12 (stereo partly specified) [ACANTRIFOSIDE A] | 4.55 | 5.23 | 5.41 | 20.07 | 25.57 | 50.66 |
| CC(C)[C@]1(O)CC[C@]2(C(=O)O[C@H]3O[C@@H](CO[C@H]4O[C@@H](CO)[C@H](O[C@H]5O[C@@H](C)[C@H](O)[C@@H](O)[C@H]5O)[C@@H](O)[C@@H]4O)[C@H](O)[C@@H](O)[C@@H]3O)CC[C@]3(C)[C@H](CC[C@@H]4[C@@]5(C)CC[C@@H](O)[C@@](C)(C(=O)O)[C@@H]5CC[C@]43C)[C@H]21 [ACANKOREOSIDE O] | 1.81 | 1.68 | 2.44 | 13.89 | 11.82 | 16.3 |
